Laboratory results as given in US20110195900A1, “PEPTIDIC PTH RECEPTOR AGONISTS” (FERRING B.V., priority 2008, published 2011).
Where two headings read alike, the source gives them in different places. Non-standard residues stand in square brackets, D forms with d. Residues, ends and D or L forms follow the SMILES beside them. 1Nal = N[C@@H](Cc1cccc2ccccc12)C(=O)O; β3hI = CC[C@H](C)[C@H](N)CC(=O)O; β3hK = NCCCC[C@H](N)CC(=O)O; hSer = N[C@@H](CCO)C(=O)O; Nle = CCCC[C@H](N)C(=O)O; Aib = CC(C)(N)C(=O)O

Key:
human PTH-1 receptor = molecular target: T1, human PTH-1 receptor (Homo sapiens, UniProt Q03431); assay: Reporter gene assay (CRE-luciferase) for agonist activity in transiently transfected HEK-293 cells; assay type: cell-based; conditions: for hPTHR-2/hPTHR-1: ratio of EC50 values, selectivity for hPTH-1 receptor over hPTH-2 receptor
T1 construct: expressed in transfected cells; host or cells: HEK-293
T1 sequence (Q03431 27-593): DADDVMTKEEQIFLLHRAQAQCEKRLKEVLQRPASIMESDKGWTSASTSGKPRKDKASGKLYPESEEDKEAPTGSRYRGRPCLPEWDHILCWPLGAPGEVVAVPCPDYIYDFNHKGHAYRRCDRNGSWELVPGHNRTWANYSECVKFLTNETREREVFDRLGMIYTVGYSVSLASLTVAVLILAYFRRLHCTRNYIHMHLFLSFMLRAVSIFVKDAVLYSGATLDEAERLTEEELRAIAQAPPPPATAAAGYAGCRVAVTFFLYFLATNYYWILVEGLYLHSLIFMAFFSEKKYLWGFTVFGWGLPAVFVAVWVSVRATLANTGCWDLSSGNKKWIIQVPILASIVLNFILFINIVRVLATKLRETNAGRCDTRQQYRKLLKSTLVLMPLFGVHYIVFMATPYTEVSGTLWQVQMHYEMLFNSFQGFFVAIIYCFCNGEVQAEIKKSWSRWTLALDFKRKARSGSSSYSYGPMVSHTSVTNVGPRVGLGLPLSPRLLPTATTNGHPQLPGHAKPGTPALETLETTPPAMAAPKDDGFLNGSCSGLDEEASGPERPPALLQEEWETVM
Procedure, shortened: (§1)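 Selectivity came from luciferase transcriptional reporter assays expressing human PTH-2 receptor. PTH-1 agonism used transiently transfected HEK-293 cells carrying SV40-promoter receptor and cAMP-responsive-element luciferase; 4-5 h compound exposure, lysis, luminescence, non-linear-regression EC50/efficacy; ≥3 independent runs, PTH (1-34) control each.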

human PTH-2 receptor = molecular target: T2, human PTH-2 receptor (Homo sapiens, UniProt P49190); assay: Luciferase-based transcriptional reporter gene assay for selectivity; assay type: cell-based
T2 construct: expressed in transfected cells
T2 sequence (P49190 25-550): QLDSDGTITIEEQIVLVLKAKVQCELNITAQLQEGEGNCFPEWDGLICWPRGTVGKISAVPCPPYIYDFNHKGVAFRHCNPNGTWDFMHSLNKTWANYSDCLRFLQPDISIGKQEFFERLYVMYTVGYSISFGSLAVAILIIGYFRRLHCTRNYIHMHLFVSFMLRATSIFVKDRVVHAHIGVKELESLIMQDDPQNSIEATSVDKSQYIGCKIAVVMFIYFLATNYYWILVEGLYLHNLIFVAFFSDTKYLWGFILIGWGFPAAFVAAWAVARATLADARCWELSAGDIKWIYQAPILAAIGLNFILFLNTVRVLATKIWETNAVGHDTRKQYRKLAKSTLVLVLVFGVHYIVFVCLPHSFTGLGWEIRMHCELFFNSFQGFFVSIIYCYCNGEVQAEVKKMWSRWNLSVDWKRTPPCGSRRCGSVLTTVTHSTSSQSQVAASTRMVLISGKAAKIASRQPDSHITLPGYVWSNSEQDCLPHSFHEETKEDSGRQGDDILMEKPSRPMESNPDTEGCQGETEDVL
Procedure, shortened: as §1

Compound | EC50 (human PTH-1 receptor) [nM] | hPTHR-2/hPTHR-1 (human PTH-1 receptor; Table 3) | EC50 (human PTH-2 receptor) [nM] | EC50 (human PTH-1 receptor; Table 3, HEK-293 cells, CRE-luciferase, 4-5 hours exposure, read-out: hPTHR-1 EC50) [nM] | EC50 (human PTH-2 receptor; Table 3, luciferase reporter gene assay, read-out: hPTHR-2 EC50) [nM]
CCCC[C@H](NC(=O)[C@H](CC(C)C)NC(=O)[C@H](CCC(N)=O)NC(=O)[C@@H](NC(=O)[C@H](CCC(=O)O)NC(=O)[C@H](CO)NC(=O)[C@@H](NC(=O)[C@@H](N)CO)C(C)C)[C@@H](C)CC)C(=O)N[C@@H](Cc1c[nH]cn1)C(=O)N[C@@H](CO)C(=O)N[C@@H](CC(C)C)C(=O)NCC(=O)N[C@@H](CCCCN)C(=O)N[C@@H](Cc1c[nH]cn1)C(=O)N[C@@H](CC(C)C)C(=O)N[C@@H](CCCCN)C(=O)N[C@@H](CO)C(=O)N[C@H](CC(=O)N[C@@H](CCC(=O)O)C(=O)N[C@@H](CCCNC(=N)N)C(=O)N[C@H](C(=O)N[C@@H](CCC(=O)O)C(=O)N[C@@H](Cc1cccc2ccccc12)C(=O)N[C@@H](CC(C)C)C(=O)N[C@@H](CCCNC(=N)N)C(=O)N[C@@H](CCCCN)C(=O)N[C@@H](CC(C)C)C(=O)N[C@@H](CC(C)C)C(=O)N[C@@H](CCC(N)=O)C(=O)N[C@@H](CCCNC(=N)N)C(=O)N[C@H](C(=O)N[C@@H](Cc1c[nH]cn1)C(=O)N[C@@H](CCC(=O)O)C(=O)N[C@@H](CCC(=O)O)C(N)=O)C(C)C)C(C)C)[C@@H](C)CC [SEQ ID NO: 44, [Nle^8, Ser^10, Lys^16, β-hIle^18,1-Nal^23, Leu^27, Arg^30, Glu^33, Glu^34] hPTH (1-34)-NH2] (H-SVSEIQL[Nle]HSLGKHLKS[β3hI]ERVE[1Nal]LRKLLQRVHEE-NH2) | 0.04 | 154 | 6 |  | 
CCCC[C@H](NC(=O)[C@H](CC(C)C)NC(=O)[C@H](CCC(N)=O)NC(=O)[C@@H](NC(=O)[C@H](CCC(=O)O)NC(=O)[C@H](CO)NC(=O)[C@@H](NC(=O)[C@@H](N)CO)C(C)C)[C@@H](C)CC)C(=O)N[C@@H](Cc1c[nH]cn1)C(=O)N[C@@H](CC(N)=O)C(=O)N[C@@H](CC(C)C)C(=O)NCC(=O)N[C@@H](CCCCN)C(=O)N[C@@H](Cc1c[nH]cn1)C(=O)N[C@@H](CC(C)C)C(=O)N[C@@H](CC(N)=O)C(=O)N[C@@H](CO)C(=O)N[C@H](CC(=O)N[C@@H](CCC(=O)O)C(=O)N[C@@H](CCCNC(=N)N)C(=O)N[C@H](C(=O)N[C@@H](CCC(=O)O)C(=O)N[C@@H](Cc1cccc2ccccc12)C(=O)N[C@@H](CC(C)C)C(=O)N[C@@H](CCCNC(=N)N)C(=O)N[C@@H](CCCCN)C(=O)N[C@@H](CC(C)C)C(=O)N[C@@H](CC(C)C)C(=O)N[C@@H](CCC(N)=O)C(=O)N[C@@H](CCCNC(=N)N)C(=O)N[C@H](C(=O)N[C@@H](Cc1c[nH]cn1)C(=O)N[C@@H](CC(N)=O)C(=O)N[C@@H](Cc1ccccc1)C(N)=O)C(C)C)C(C)C)[C@@H](C)CC [SEQ ID NO: 35, [Nle^8, β-hIle^18,1-Nal^23, Leu^27, Arg^30] hPTH (1-34)-NH2] (H-SVSEIQL[Nle]HNLGKHLNS[β3hI]ERVE[1Nal]LRKLLQRVHNF-NH2; N-terminus assumed) | 0.18 | 40 | 7 |  | 
CCCC[C@H](NC(=O)[C@H](CC(C)C)NC(=O)[C@H](CCC(N)=O)NC(=O)[C@@H](NC(=O)[C@H](CCC(=O)O)NC(=O)[C@H](CO)NC(=O)[C@@H](NC(=O)[C@@H](N)CO)C(C)C)[C@@H](C)CC)C(=O)N[C@@H](Cc1c[nH]cn1)C(=O)N[C@@H](CC(N)=O)C(=O)N[C@@H](CC(C)C)C(=O)NCC(=O)N[C@@H](CCCCN)C(=O)N[C@@H](Cc1c[nH]cn1)C(=O)N[C@@H](CC(C)C)C(=O)N[C@@H](CCCCN)C(=O)N[C@@H](CO)C(=O)N[C@H](CC(=O)N[C@@H](CCC(=O)O)C(=O)N[C@@H](CCCNC(=N)N)C(=O)N[C@H](C(=O)N[C@@H](CCC(=O)O)C(=O)N[C@@H](Cc1cccc2ccccc12)C(=O)N[C@@H](CC(C)C)C(=O)N[C@@H](CCCNC(=N)N)C(=O)N[C@@H](CCCCN)C(=O)N[C@@H](CC(C)C)C(=O)N[C@@H](CC(C)C)C(=O)N[C@@H](CCC(N)=O)C(=O)N[C@@H](CCCNC(=N)N)C(=O)N[C@H](C(=O)N[C@@H](Cc1c[nH]cn1)C(=O)N[C@@H](CCC(=O)O)C(=O)N[C@@H](Cc1ccccc1)C(N)=O)C(C)C)C(C)C)[C@@H](C)CC [SEQ ID NO: 41, [Nle^8, Lys^16, β-hIle^18,1-Nal^23, Leu^27, Arg^30, Glu^33] hPTH (1-34)-NH2] (H-SVSEIQL[Nle]HNLGKHLKS[β3hI]ERVE[1Nal]LRKLLQRVHEF-NH2) | 0.09 | 157 | 14 |  | 
CCCC[C@H](NC(=O)[C@H](CC(C)C)NC(=O)[C@H](CCC(N)=O)NC(=O)[C@@H](NC(=O)[C@H](CCC(=O)O)NC(=O)[C@H](CO)NC(=O)[C@@H](NC(=O)[C@@H](N)CO)C(C)C)[C@@H](C)CC)C(=O)N[C@@H](Cc1c[nH]cn1)C(=O)N[C@@H](CC(N)=O)C(=O)N[C@@H](CC(C)C)C(=O)NC(C)(C)C(=O)N[C@@H](CCCCN)C(=O)N[C@@H](Cc1c[nH]cn1)C(=O)N[C@@H](CC(C)C)C(=O)N[C@@H](CC(N)=O)C(=O)N[C@@H](CO)C(=O)N[C@H](CC(=O)N[C@@H](CCC(=O)O)C(=O)N[C@@H](CCCNC(=N)N)C(=O)N[C@H](C(=O)N[C@@H](CCC(=O)O)C(=O)N[C@@H](Cc1cccc2ccccc12)C(=O)N[C@@H](CC(C)C)C(=O)N[C@@H](CCCNC(=N)N)C(=O)N[C@@H](CCCCN)C(=O)N[C@@H](CC(C)C)C(=O)N[C@@H](CC(C)C)C(=O)N[C@@H](CCC(N)=O)C(=O)N[C@@H](CC(=O)O)C(=O)N[C@H](C(=O)N[C@@H](Cc1c[nH]cn1)C(=O)N[C@@H](CC(N)=O)C(=O)N[C@@H](Cc1ccccc1)C(N)=O)C(C)C)C(C)C)[C@@H](C)CC [SEQ ID NO: 32, [Nle^8, Aib^12, β-hIle^18,1-Nal^23, Leu^27] hPTH (1-34)-NH2] (H-SVSEIQL[Nle]HNL[Aib]KHLNS[β3hI]ERVE[1Nal]LRKLLQDVHNF-NH2) |  | 55 | 13 |  | 
CCCC[C@H](NC(=O)[C@H](CC(C)C)NC(=O)[C@H](CCC(N)=O)NC(=O)[C@@H](NC(=O)[C@H](CCC(=O)O)NC(=O)[C@H](CO)NC(=O)[C@@H](NC(=O)C(C)(C)N)C(C)C)[C@@H](C)CC)C(=O)N[C@@H](Cc1c[nH]cn1)C(=O)N[C@@H](CC(N)=O)C(=O)N[C@@H](CC(C)C)C(=O)NCC(=O)N[C@@H](CCCCN)C(=O)N[C@@H](Cc1c[nH]cn1)C(=O)N[C@@H](CC(C)C)C(=O)N[C@@H](CC(N)=O)C(=O)N[C@@H](CO)C(=O)N[C@@H](CCOC)C(=O)N[C@@H](CCCCN)CC(=O)N[C@@H](CCCNC(=N)N)C(=O)N[C@H](C(=O)N[C@@H](CCC(=O)O)C(=O)N[C@@H](Cc1cccc2ccccc12)C(=O)N[C@@H](CC(C)C)C(=O)N[C@@H](CCCNC(=N)N)C(=O)N[C@@H](CCCCN)C(=O)N[C@@H](CC(C)C)C(=O)N[C@@H](CC(C)C)C(=O)N[C@@H](CCC(N)=O)C(=O)N[C@@H](CC(=O)O)C(=O)N[C@H](C(=O)N[C@@H](Cc1c[nH]cn1)C(=O)N[C@@H](CC(N)=O)C(=O)N[C@@H](Cc1ccccc1)C(N)=O)C(C)C)C(C)C [SEQ ID NO: 47, [Aib^1, Nle^8, hSer(OMe)^18, β-hLys^19,1-Nal^23, Leu^27] hPTH (1-$$4)-NH2] (H-[Aib]VSEIQL[Nle]HNLGKHLNS[hSer](Me)[β3hK]RVE[1Nal]LRKLLQDVHNF-NH2) |  | 51 |  | 0.05 | 3
CCCC[C@H](NC(=O)[C@H](CC(C)C)NC(=O)[C@H](CCC(N)=O)NC(=O)[C@@H](NC(=O)[C@H](CCC(=O)O)NC(=O)[C@H](CO)NC(=O)[C@@H](NC(=O)[C@@H](N)CO)C(C)C)[C@@H](C)CC)C(=O)N[C@@H](Cc1c[nH]cn1)C(=O)N[C@@H](CO)C(=O)N[C@@H](CC(C)C)C(=O)NCC(=O)N[C@@H](CCCCN)C(=O)N[C@@H](Cc1c[nH]cn1)C(=O)N[C@@H](CC(C)C)C(=O)N[C@@H](CCCCN)C(=O)N[C@@H](CO)C(=O)N[C@H](CC(=O)N[C@@H](CCC(=O)O)C(=O)N[C@@H](CCCNC(=N)N)C(=O)N[C@H](C(=O)N[C@@H](CCC(=O)O)C(=O)N[C@@H](Cc1cccc2ccccc12)C(=O)N[C@@H](CC(C)C)C(=O)N[C@@H](CCCNC(=N)N)C(=O)N[C@@H](CCCCN)C(=O)N[C@@H](CC(C)C)C(=O)N[C@@H](CC(C)C)C(=O)N[C@@H](CCC(N)=O)C(=O)N[C@@H](CCCNC(=N)N)C(=O)N[C@H](C(N)=O)C(C)C)C(C)C)[C@@H](C)CC [SEQ ID NO: 49, [Nle^8, Ser^10, Lys^16, β-hIle^18,1-Nal^23, Leu^27, Arg^30] hPTH (1-31)-NH2] (H-SVSEIQL[Nle]HSLGKHLKS[β3hI]ERVE[1Nal]LRKLLQRV-NH2) | 0.08 | 87 | 7 |  | 
